The values that follow come from a melting point compilation (Tetko et al.; mined from patent text by program, amines drawn as free bases though some values may be those of a salt).

For `Cc1ccc(-c2ccc(C(=O)Nc3cc4ncc(CN5CCCC5)cc4cc3F)c(F)c2)cc1`, the melting point lay in the range of 179 to 181 °C. The value for `O=[N+]([O-])CC(O)c1nn(Cc2ccccc2)c2ccccc12` (stereo not drawn) was 100 to 101 °C.

In turn, `CN1C(=O)CC[C@]2(C)c3ccc(C=Cc4cncc5ccccc45)cc3CC[C@@H]12` returned a melting point of 183 to 185 °C.

Take `CC(C)(C)OC(=O)N[C@@H]1C(=O)N2C(C(=O)OC(c3ccccc3)c3ccccc3)=C(/C=C3\CCN(CC4CC4)C3=O)CS[C@H]12`: the melting point lay in the range of 175 to 180 °C.

Consider `Cc1nc(N2CCN(CC3CC3)C2=O)sc1C(=O)NCc1ncco1`, for which the melting point lay in the range of 172 to 174 °C. The value for `Nc1ccc2c(=O)n3c(nc2c1)C(=Cc1ccc(C(=O)O)cc1)CC3` was 336 to 339 °C.

Consider `CCOC(=O)CCSc1nnsc1-c1ccccc1`, for which the melting point lay in the range of 57.5 to 58.5 °C. The value for `Cc1c(C)c(N2Cc3cc4c(cc3C2)OCO4)c(C)c2c1OC(C)(C)C2c1ccccc1` (stereo not drawn) was 245 to 248 °C; that for `CCNC(=O)ON=C1N=C(C)C(C)(C)S1` was 84 to 86 °C. The value for `c1ccc(-c2ccc(-c3cn4ccc5ccccc5c4n3)cc2)cc1` was 221 to 222 °C; that for `CCOC(=O)CON(C)C(=S)Nc1ccc(Cl)cc1C` was 104 to 106 °C; that for `Cc1cccc2c1nc(-c1c(F)cccc1F)n2Cc1ccccc1` was 112 to 117 °C. The value for `CNC(=C(Br)C#N)c1ccc(Cl)cc1` was 178 °C. The molecule `CCCCCNc1cc(C(=O)O)cc(S(N)(=O)=O)c1Oc1ccccc1` displayed a melting point of 223 to 224 °C.

`CC(=O)OCC(=O)C1=CCC2C3CCC4=CC(=O)C=CC4(C)C3C(O)CC12C` (stereo not drawn): the melting point fell in the range of 203 to 205 °C. Regarding `O=c1n(-c2ccc(OCC(F)(F)C(F)F)cc2)cnn1CC(O)(Cn1cncn1)c1ccc(F)cc1F` (racemic), the melting point was in the range of 79 to 80 °C. The value for `CCc1nn(Cc2noc(O)n2)c(CC)c1Oc1cc(Cl)cc(Cl)c1` was 94 to 96 °C; that for `CCOC(=O)c1c[nH]c2nc(N3CCN(C(C)=O)CC3)c(F)cc2c1=O` was 290 to 295 °C. For the molecule `C=CCCCC(C#N)(C#N)Cc1ccc(C#N)cc1`, the melting point came to 91.5 °C. Turning to `CNC1Oc2cc(Cl)cc(-c3cc(F)ccc3F)c2O1` (stereo not drawn), the melting point was > 250 °C. For `Cc1csc2nc(-n3cccn3)nc(NCc3ccc4c(c3)OCO4)c12`, the melting point was 210 °C. As for `O=[N+]([O-])c1cccc2c1OCCO2`, the melting point was in the range of 55 to 59 °C. As for `O=C1NCC[C@@H](c2ccc(Oc3ccccc3)cc2)[C@@H]1c1ccccc1` (relative stereo), the melting point lay in the range of 157 to 159 °C. To `CCCCn1c(=O)c2c(ncn2S(=O)(=O)c2c(C)noc2C)n(CCCC)c1=O` belongs 103 to 105 °C. As to `Cc1ccnc(-c2nc(=O)c3ccc(Cl)cc3s2)c1`, the melting point was 246 to 247 °C. On to `O=C(NS(=O)(=O)c1cc(C(F)(F)F)ccc1Cl)c1cn2cc(C(F)(F)F)cnc2n1`, for which the melting point lay in the range of 211 to 212 °C. `CC(C)C(=O)N[C@@H]1CCc2c(c3cc(C#N)ccc3n2Cc2cccc(F)c2)C1`: the melting point lay within 223 to 225 °C. To `COc1cc2nc(SCc3ccccc3)nn2c(Cl)n1` belongs 140 to 141 °C; to `CC(=O)CC(=O)NCCNC(=O)OCc1ccccc1`, 116 to 118 °C. The value for `CNC(=O)N1N=C(c2ccc(N)cc2)c2cc(Cl)c(Cl)cc2CC1C` (stereo not drawn) was 224 to 225 °C; that for `CCNc1nc(Br)cn2c(Br)cnc12` was 131 °C. To `CCC(O)=C1SC(=S)N(c2ccc(Cl)cc2)C1=O` belongs 145 to 149 °C; to `O=c1oc2ccc(-c3ccc(F)cc3F)cc2c(=O)n1-c1ccc(C(F)(F)F)cc1`, 209 to 210 °C. Molecule `N#CSCC(I)=C(I)CSC#N` had a melting point of 190 °C.

Turning to `Cc1oc(-c2ccccc2)nc1CCOc1ccc(OC(C)(C)C(=O)O)cc1`, the melting point was 129 to 130 °C. `O=C(O)CC1COc2cc(Cl)c(Cl)cc2O1` (stereo not drawn) registered a melting point of 145 to 147 °C.

For the molecule `CCCCn1c(=O)c(NC(=O)Nc2c(C(C)C)cc(N)cc2C(C)C)c(-c2cccc(OCCCO)c2)c2cccnc21`, the melting point lay within 153 to 155 °C. Molecule `O=C(Nc1ccc(-c2ccc(C(=O)N3CCN4CCC3CC4)o2)cc1)c1ccccc1` registered a melting point of 254 °C. To `C=Cc1ccc2c(c1)CC(NC(=O)OC(C)(C)C)CC2` (stereo not drawn) belongs 89 to 91 °C; to `COc1cc2occ(C(=O)Nc3cccnc3)c2cc1Br`, 210 to 212 °C. On to `CN1C(=O)C(C)(C)N=C(c2ccccc2Cl)c2c1ccc(N)c2Br`, for which the melting point lay in the range of 188 to 189 °C. The value for `CC(C)(Oc1c(Br)cc(-c2c3ccccc3c(Br)c3sc4ccccc4c23)cc1Br)C(=O)O` was 197 to 199 °C. To `CCOC(=O)c1[nH]c(CC2CCC2)nc1C(F)(F)F` belongs 136 to 138 °C. To `CC(=O)OCC1SC(Oc2cc(C)cc(O)c2C(C)=O)C(OC(C)=O)C(OC(C)=O)C1OC(C)=O` (stereo not drawn) belongs 162 to 164 °C; to `CCc1cccc(CC)c1NC(=O)C1c2ccccc2COc2ccc(C(C)C)cc21` (stereo not drawn), 170 °C.

Take `COc1ccc(C=C[N+](=O)[O-])c(Cl)c1OC`: the melting point was in the range of 88 to 91 °C.

Molecule `CC1=CC(=O)C(C)=C(C)C1=O` had a melting point of 28 °C. The value for `CCOC(=O)NNc1ccc(-c2ccc(C#N)cc2)nn1` was 235 °C; that for `CC(C)[C@H](NC(=O)OCc1ccccn1)C(=O)N[C@@H](Cc1ccccc1)C[C@H](O)[C@H](Cc1ccccc1)NC(=O)OCc1cncs1` was 166 to 168 °C; that for `NS(=O)(=O)c1ccc(-c2cnn(-c3ccc(F)c(F)c3)c(=O)c2-c2ccc(F)cc2)cc1` was 177 to 181 °C.

For `CCOc1cccc(C)c1S(=O)(=O)N=C=O`, the melting point came out at 40 °C. To `CC(C(=O)O)c1ccc2cc(OCC(=O)O)ccc2c1` (stereo not drawn) belongs 185 to 188 °C.

The molecule `O=C1CCC(n2cnc(-c3ccc(F)cc3)c2-c2ccnc(O)n2)CC1` registered a melting point of 236 to 238 °C. With `CC1(C)c2cc(O)ccc2OC1O` (stereo not drawn), the melting point lay in the range of 78 to 81 °C. The value for `CC(C)NCC(O)COc1ccc(OCCOCC2CCC2)cc1` (stereo not drawn) was 56 °C; that for `C[C@@H]1CN(c2ccc(-c3[nH]nc4c3C(=O)c3c(NC(=O)NN5CCOCC5)cccc3-4)cc2)C[C@H](C)N1` was 237 °C; that for `O=S(=O)(Nc1ccc2c(OCc3csc(-c4ccc(F)cc4F)n3)cccc2c1)C(F)(F)F` was 191 to 192 °C. To `CCOC(=O)c1cc(Cl)c(N)c2c1OCCO2` belongs 105 to 106 °C; to `Nc1nc2ccccc2c2c1ncn2CCNC(=O)CCCCC1SCC2NC(=O)NC21` (stereo not drawn), 169 °C. As to `Cc1cccc(NC(=O)Nc2c(-c3ccccc3)c3cc(Cl)ccc3c(=O)n2C)c1`, the melting point is > 300 °C. Molecule `COC(=O)CSC1NC(=O)c2sccc2-n2cccc21` (stereo not drawn) showed a melting point of 158 °C.

With `O=C(CN1C(=O)C2(COc3ccc(Br)cc32)c2ccccc21)Nc1ccccc1F` (stereo not drawn), the melting point was in the range of 100 to 103 °C. As for `O=C(NC1CC1)c1nc(-c2ccccc2)c(-c2ccc(=O)[nH]n2)s1`, the melting point is > 250 °C. The value for `O=C(O)C1Cc2cc3c(-c4ccccc4)noc3c(Cl)c2O1` (stereo not drawn) was 214 to 215 °C. Molecule `CCOC(=O)c1ccc(NCC(C)Oc2cccc3ccccc23)cc1` (stereo not drawn) gave a melting point of 110 to 112 °C.

The molecule `Cc1c(C)c2c(c(C)c1Br)C(c1ccc(C(C)C)cc1)CO2` (stereo not drawn) gave a melting point of 86 to 87 °C. The value for `O=Cc1cc2cc(OCc3ccccc3)ccc2nc1Cl` was 180 to 182 °C; that for `COC(=O)C=CC(CNC(=O)C(C)(Cc1c[nH]c2ccccc12)NC(=O)OC1C2CC3CC(C2)CC1C3)c1ccccc1` (stereo not drawn) was 80 to 93 °C; that for `CNC1CN(c2c(F)cc3c(=O)c(C(=O)O)cn(C4CC4)c3c2F)C1` was 270 to 272 °C.

`O=c1c2ccccc2ncn1C1CCN(Cc2ccccc2)CC1` had a melting point of 147 °C.

Regarding `O=C(O)c1cnc(S)n1Cc1cc(F)cc(F)c1`, the melting point was 240 to 241 °C. To `COC(=O)c1ccc2cc(C(=O)c3cc(O)c4c(c3)C(C)(C)CCC4(C)C)ccc2c1` belongs 222 °C. To `O=C(CC(CSC(=O)c1ccccc1)C(=O)O)c1ccc(Br)cc1` (stereo not drawn) belongs 133 to 135 °C; to `CC1CC(C)(CO)CN1c1ccc(C#N)c2ccccc12` (stereo not drawn), 100 to 101 °C. To `Nc1ccc(CN2CCC(=O)C(=C3SC=CS3)C2=O)cc1` belongs 156 to 158 °C; to `Clc1cccc2c1CNC(=Nc1ccccc1)CS2`, 150 to 152 °C. As for `O=C1c2ccc(F)cc2C(=O)N1c1cc([N+](=O)[O-])c(Cl)cc1F`, the melting point fell in the range of 162 to 163 °C.

`COc1ccc(C=CC(=O)NNC(=O)CCc2cc(C(C)(C)C)c(O)c(C(C)(C)C)c2)cc1` returned a melting point of 252 to 254 °C.

For the molecule `Cc1c(C)c2c(c(C)c1NC(=O)CC(C)(C)C)C(c1ccccc1)CO2` (stereo not drawn), the melting point lay within 146 to 147 °C. To `CCOC(=O)c1cc(NCc2c(C)cccc2C)c2nc(COC)n(C)c2c1` belongs 134 to 135 °C. To `COc1ccc(C(=O)Cl)cc1OC(=O)c1ccccc1` belongs 120 to 122 °C; to `CCOC(=O)C1=C(C)NC(=O)N(C(=O)OCC)C1c1ccccc1[N+](=O)[O-]` (stereo not drawn), 150 to 152 °C; to `Cc1c(Cc2nc(C(=O)O)cs2)n(S(=O)(=O)c2cccc(C(C)(C)C)c2)c2ccc(C(F)(F)F)cc12`, 60 °C. To `COc1cc(OC)nc(NC(=O)Oc2ccccc2)n1` belongs 118 to 119 °C; to `COc1cc2c(CCNC(C)=O)cn(C(C)=O)c2cc1Cl`, 178 to 181 °C; to `O=C1CC(c2cccc(-c3nc(CN4CCOCC4)co3)c2)=Nc2ccc(-n3cccc3)cc2N1`, 166 to 167 °C. `Cc1ccc(CSc2ccc(Cl)cc2)cc1`: the melting point was in the range of 72 to 73 °C. The value for `Cc1nn(-c2cnccn2)c(-c2ccccc2)c1CC(=O)O` was 125 °C.
